For orientation: IC50 means the midpoint of a concentration-inhibition curve. A higher IC50 goes with weaker potency.

Data on 3 compounds can be found in ChEMBL document CHEMBL1921769, “Synthesis and docking study of 2-phenylaminopyrimidine Abl tyrosine kinase inhibitors” (Bioorg Med Chem Lett, 2011).

The target of this assay is Tyrosine-protein kinase ABL1 (Homo sapiens, UniProt P00519). Put plainly: Inhibition of Abl using DAIpYAAPFAKKK phosphopeptide as substrate by MALDI-MS analysis.
Tyrosine-protein kinase ABL1, sequence (P00519 whole entry): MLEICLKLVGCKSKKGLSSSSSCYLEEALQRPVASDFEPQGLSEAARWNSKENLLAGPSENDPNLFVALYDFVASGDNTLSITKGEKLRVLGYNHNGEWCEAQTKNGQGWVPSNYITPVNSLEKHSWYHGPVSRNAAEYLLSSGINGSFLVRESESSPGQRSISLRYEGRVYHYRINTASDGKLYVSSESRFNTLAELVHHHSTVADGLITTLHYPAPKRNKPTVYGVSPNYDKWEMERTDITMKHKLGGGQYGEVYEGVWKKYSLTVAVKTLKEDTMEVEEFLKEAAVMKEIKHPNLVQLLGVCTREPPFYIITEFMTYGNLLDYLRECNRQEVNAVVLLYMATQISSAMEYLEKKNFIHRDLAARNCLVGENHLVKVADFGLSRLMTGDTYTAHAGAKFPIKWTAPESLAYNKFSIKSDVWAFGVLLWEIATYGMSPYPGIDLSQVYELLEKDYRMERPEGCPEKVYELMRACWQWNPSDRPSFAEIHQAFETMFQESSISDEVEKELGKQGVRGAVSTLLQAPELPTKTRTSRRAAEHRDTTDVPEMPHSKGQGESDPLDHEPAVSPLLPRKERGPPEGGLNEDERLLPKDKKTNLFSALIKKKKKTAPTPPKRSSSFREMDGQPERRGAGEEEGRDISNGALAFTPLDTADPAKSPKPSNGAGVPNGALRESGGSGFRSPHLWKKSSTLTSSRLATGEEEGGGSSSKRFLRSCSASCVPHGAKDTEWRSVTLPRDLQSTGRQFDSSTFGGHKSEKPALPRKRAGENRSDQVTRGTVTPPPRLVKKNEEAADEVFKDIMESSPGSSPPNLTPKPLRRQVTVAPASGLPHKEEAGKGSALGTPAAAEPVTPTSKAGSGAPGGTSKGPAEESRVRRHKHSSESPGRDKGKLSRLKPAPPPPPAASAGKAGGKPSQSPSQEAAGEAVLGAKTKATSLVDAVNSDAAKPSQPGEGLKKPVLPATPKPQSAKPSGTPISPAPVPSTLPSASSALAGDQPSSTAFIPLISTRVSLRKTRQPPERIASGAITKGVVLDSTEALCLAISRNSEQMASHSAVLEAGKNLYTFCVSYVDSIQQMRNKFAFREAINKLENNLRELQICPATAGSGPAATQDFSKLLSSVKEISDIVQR

`CSc1cccc(C(=O)Nc2ccc(C)c(Nc3nccc(-c4cccnc4)n3)c2)c1` came in with an IC50 of 1.1 µM.
Next, `Cc1ccc(NC(=O)c2ccc(N)c(N)c2)cc1Nc1nccc(-c2cccnc2)n1`: above 25 µM; `Cc1ccc(NC(=O)c2ccccc2)cc1Nc1nccc(-c2cccnc2)n1`: 12.7 µM.
